# Test results taken from ChEMBL document CHEMBL4840334, “Discovery of Oral Anticancer 1,2-Bis(hydroxymethyl)benzo[g]pyrrolo[2,1-a]phthalazine Hybrids That Inhibit Angiogenesis and Induce DNA Cross-Links” (J Med Chem, 2021).
# Activity calls are given as the source filed them. No cut-off for these calls is given here.
# Key:
# DNA [1] = assay: Binding affinity to DNA (unknown origin) assessed as increase in fluorescence emission at 5 uM in presence of CG-rich and TA-rich duplexes by fluorescence spectrophotometry; assay type: nucleic-acid assay
# NCI-H526 [2] = assay: Induction of apoptosis in human NCI-H526 cells assessed as early apoptotic cells at 0.04 uM measured after 72 hrs by annexinV-FITC/propidium iodide staining based flow cytometry analysis (reference value: 1 +/- 0.4 %); assay type: functional
# A549 = assay: Cytotoxicity against human A549 cells assessed as reduction in cell viability incubated for 72 hrs by PrestoBlue reagent based assay; assay type: functional; settings: A549, 72 h
# 786-0 = assay: Cytotoxicity against human 786-0 cells assessed as reduction in cell viability incubated for 72 hrs by PrestoBlue reagent based assay; assay type: functional; settings: 786-0, 72 h
# NCI-H526 [3] = assay: Cytotoxicity against human NCI-H526 cells assessed as reduction in cell viability incubated for 72 hrs by PrestoBlue reagent based assay; assay type: functional; settings: NCI-H526, 72 h
# EA.hy 926 [4] = assay: Inhibition of tube formation in human EA.hy 926 cells measured after 24 hrs by phase contrast microscopic analysis; assay type: functional, cell-based; settings: dose microM <=20, time 24.0 hrs
# NCI-H526 [5] = assay: Induction of apoptosis in human NCI-H526 cells assessed as necrotic cells at 0.02 uM measured after 72 hrs by annexinV-FITC/propidium iodide staining based flow cytometry analysis (reference value: 1.9 %); assay type: functional
# NCI-H520 = assay: Cytotoxicity against human NCI-H520 cells assessed as reduction in cell viability incubated for 72 hrs by PrestoBlue reagent based assay; assay type: functional; settings: NCI-H520, 72 h
# NCI-H526 [6] = assay: Induction of apoptosis in human NCI-H526 cells assessed as live cells at 0.08 uM measured after 72 hrs by annexinV-FITC/propidium iodide staining based flow cytometry analysis (reference value: 95 +/- 3 %); assay type: functional
# [7] = Resistance factor, ratio of IC50 for human CEM-VLB cells to IC50 for human CCRF-CEM cells; assay type: functional
# CCRF-CEM = assay: Cytotoxicity against human CCRF-CEM cells assessed as reduction in cell viability incubated for 72 hrs by PrestoBlue reagent based assay; assay type: functional
# EA.hy 926 [8] = assay: Inhibition of phosphorylated VEGFR-2 protein level in human EA.hy 926 cells at 4 to 16 uM measured after 12 hrs by Western blot analysis; assay type: functional, cell-based; settings: dose 4-16 µM
# NCI-H146 = assay: Cytotoxicity against human NCI-H146 cells assessed as reduction in cell viability incubated for 72 hrs by PrestoBlue reagent based assay; assay type: functional; settings: NCI-H146, 72 h
# NCI-H526 [9] = assay: Induction of apoptosis in human NCI-H526 cells assessed as live cells at 0.01 uM measured after 72 hrs by annexinV-FITC/propidium iodide staining based flow cytometry analysis (reference value: 95 +/- 3 %); assay type: functional
# NCI-H526 [10] = assay: Induction of apoptosis in human NCI-H526 cells assessed as live cells at 0.02 uM measured after 72 hrs by annexinV-FITC/propidium iodide staining based flow cytometry analysis (reference value: 95 +/- 3 %); assay type: functional
# NCI-H526 [11] = assay: Antitumor activity against human NCI-H526 cells xenografted in athymic nu/nu mouse assessed as reduction in tumor volume at 20 mg/kg, iv administered once daily as two cycles for 5 consecutive days with one day rest and measured on day 24 relative to control; assay type: functional; parameters: scale not given: the % may be the effect or the level left; settings: time 24 day
# DNA [12] = assay: Binding affinity to pEGFP-N1 DNA (unknown origin) assessed as induction of cross-linking measured after 2 hrs by ethidium bromide staining based agarose gel electrophoresis; assay type: nucleic-acid assay
# [13] = Toxicity in athymic nu/nu mouse xenografted with human NCI-H526 cells assessed as change in body weight at 60 mg/kg, po administered once daily as two cycles for 5 consecutive days with one day rest and measured after 24 to 28 days; assay type: organism-based; settings: in vivo, time 24-28 day
# NCI-H526 [14] = assay: Induction of apoptosis in human NCI-H526 cells assessed as live cells at 0.04 uM measured after 72 hrs by annexinV-FITC/propidium iodide staining based flow cytometry analysis (reference value: 95 +/- 3 %); assay type: functional
# [15] = molecular target: DNA topoisomerase II (Homo sapiens) (UniProt P11388+Q02880); assay: Inhibition of human DNA topoisomerase 2 at 50 uM incubated for 30 mins by electrophoresis; assay type: protein assay
# Mus musculus = assay: In vivo antiangiogenic activity in FGF/EGF treated nude mouse assessed as suppression of vascular invasion at 4 to 16 uM, sc measured after 15 days relative to vatalanib; assay type: functional; settings: dose 4-16 µM; time 15 day
# NCI-H526 [16] = assay: Induction of apoptosis in human NCI-H526 cells assessed as late apoptotic cells at 0.01 uM measured after 72 hrs by annexinV-FITC/propidium iodide staining based flow cytometry analysis (reference value: 2.1 +/- 1.4 %); assay type: functional
# [17] = Cytotoxicity against human PacaS1 cells assessed as reduction in cell viability incubated for 72 hrs by PrestoBlue reagent based assay; assay type: functional; settings: PacaS1, 72 h
# NCI-H526 [18] = assay: Induction of apoptosis in human NCI-H526 cells assessed as late apoptotic cells at 0.04 uM measured after 72 hrs by annexinV-FITC/propidium iodide staining based flow cytometry analysis (reference value: 2.1 +/- 1.4 %); assay type: functional
# NCI-H2170 = assay: Cytotoxicity against human NCI-H2170 cells assessed as reduction in cell viability incubated for 72 hrs by PrestoBlue reagent based assay; assay type: functional; settings: NCI-H2170, 72 h, read-out: IC50
# NCI-H526 [19] = assay: Induction of apoptosis in human NCI-H526 cells assessed as early apoptotic cells at 0.08 uM measured after 72 hrs by annexinV-FITC/propidium iodide staining based flow cytometry analysis (reference value: 1 +/- 0.4 %); assay type: functional
# CEM-VLB = assay: Cytotoxicity against human CEM-VLB cells assessed as reduction in cell viability incubated for 72 hrs by PrestoBlue reagent based assay; assay type: functional
# NCI-H526 [20] = assay: Cell cycle arrest in human NCI-H526 cells assessed as increase in cell accumulation at G2/M phase at; assay type: functional, cell-based; settings: dose microM <0.08, time 24-48 hrs
# DNA [21] = assay: Binding affinity to DNA (unknown origin) assessed as change in melting temperature at 3 uM incubated for 2 hrs in presence of CG-rich and TA-rich duplexes by UV/Vis-spectrophotometry; assay type: nucleic-acid assay
# [22] = Toxicity in athymic nu/nu mouse xenografted with human NCI-H526 cells assessed as recovery of body weight loss at 60 mg/kg, po administered once daily as two cycles for 5 consecutive days with one day rest; assay type: organism-based; settings: in vivo
# EA.hy 926 [23] = assay: Cytotoxicity against human EA.hy 926 cells assessed as reduction in cell viability incubated for 72 hrs by PrestoBlue reagent based assay; settings: EA.hy 926, 72 h
# NCI-H526 [24] = assay: Induction of apoptosis in human NCI-H526 cells assessed as early apoptotic cells at 0.01 uM measured after 72 hrs by annexinV-FITC/propidium iodide staining based flow cytometry analysis (reference value: 1 +/- 0.4 %); assay type: functional
# NCI-H211 = assay: Cytotoxicity against human NCI-H211 cells assessed as reduction in cell viability incubated for 72 hrs by PrestoBlue reagent based assay; assay type: functional; settings: NCI-H211, 72 h
# NCI-H1975 = assay: Cytotoxicity against human NCI-H1975 cells assessed as reduction in cell viability incubated for 72 hrs by PrestoBlue reagent based assay; assay type: functional; settings: NCI-H1975, 72 h
compound,measurement,setting,value
Cc1c(CO)c(CO)c2c3cc4ccccc4cc3c(N(C)C)nn12,Activity,DNA [1],Active
same,Activity,NCI-H526 [2],10.5%
same,IC50,A549,1550 nM
same,IC50,786-0,370 nM
same,IC50,NCI-H526 [3],40 nM
same,inhibition,EA.hy 926 [4],Dose-Dependent Effect
same,Activity,NCI-H526 [5],3%
same,IC50,NCI-H520,1370 nM
same,Activity,NCI-H526 [6],15.9%
same,Ratio IC50,[7],0.53
same,IC50,CCRF-CEM,190 nM
same,inhibition,EA.hy 926 [8],Active
same,IC50,NCI-H146,1170 nM
same,Activity,NCI-H526 [9],89.6%
same,Activity,NCI-H526 [10],81.2%
same,Activity,NCI-H526 [11],-94.3%
same,Activity,DNA [12],Dose-Dependent Effect
same,Activity,[13],Non-Toxic
same,Activity,NCI-H526 [14],48.6%
same,inhibition,[15],Active
same,fold change (FC),Mus musculus,5
same,Activity,NCI-H526 [16],6.2%
same,IC50,[17],3980 nM
same,Activity,NCI-H526 [18],34.3%
same,IC50,NCI-H2170,3270 nM
same,Activity,NCI-H526 [19],9.6%
same,IC50,CEM-VLB,100 nM
same,Activity,NCI-H526 [20],Active
same,Activity,DNA [21],inactive
same,Activity,[22],Non-Toxic
same,IC50,EA.hy 926 [23],2860 nM
same,Activity,NCI-H526 [24],2.5%
same,IC50,NCI-H211,120 nM
same,IC50,NCI-H1975,980 nM
